Data: patent US6300350A, “Treatment of emphysema using RARy selective retinoid agonists” (priority 2000, dated 2001)
pEC50, pIC50: −log10 of the molar value.

Columns and labels:
[1] = Plasma triglyceride levels in rats; type: in vivo; conditions: plasma, 1 mg/kg/PO daily for two weeks
Description: Experimental emphysema was induced in rats as described in Example 2. Three (3) weeks post injury animals were treated with vehicle (Capmul solution) or retinoids prepared in Capmul and dosed orally at 1, 3, and 10 mg/kg body weight. Animals were treated for 14 days prior to termination of study. Lung harvest and blood collection was performed as described in Example 2.
Quantitation of triglycerides contained in rat plasma was performed after using established procedures in a contact clinical laboratory facility. Briefly, plasma triglycerides were converted to dihdroxyacetone and H2 O2, by sequential treatment of plasma with lipase and glycerokinase according directions described by manufacturer of triglycerides/GPO kit (Boehringer Mannheim #1488872). H2 02 was quantitated calorimetrically in a Hitachi 911 Chemistry Analyzer. In rats normal triglyceride levels are 75-175 mg/dl.
Dosage was at 1 mg/kg/PO daily for two weeks. […] Therefore, it appears that RARα selective activity is linked to elevated triglyceride levels.

[2] = target: T1, RARβ (Homo sapiens, UniProt P10826); assay: Transactivation, RARβ; type: cell-based; conditions: Table II
T1 sequence (P10826 1-455): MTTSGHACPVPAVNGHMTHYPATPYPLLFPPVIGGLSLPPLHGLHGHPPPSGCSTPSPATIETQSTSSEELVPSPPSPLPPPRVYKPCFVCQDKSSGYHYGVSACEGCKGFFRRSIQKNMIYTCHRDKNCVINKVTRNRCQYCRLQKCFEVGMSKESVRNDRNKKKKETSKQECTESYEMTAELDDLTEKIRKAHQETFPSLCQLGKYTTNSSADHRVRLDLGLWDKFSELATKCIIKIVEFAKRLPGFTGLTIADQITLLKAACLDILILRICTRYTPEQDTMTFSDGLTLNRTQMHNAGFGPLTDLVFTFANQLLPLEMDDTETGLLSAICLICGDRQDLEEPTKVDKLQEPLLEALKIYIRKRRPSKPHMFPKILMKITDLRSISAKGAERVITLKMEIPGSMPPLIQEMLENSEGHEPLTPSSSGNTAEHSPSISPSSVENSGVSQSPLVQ
From the text: (§1) As used herein, the term "transactivation" refers to the ability of a retinoid to activate the transcription of a gene where the gene transcription is initiated by the binding of a ligand to the particular retinoic acid receptor being tested, i.e., RARα, RARβ, or RARγ. Determining the ability of a compound to transactivate a retinoic acid receptor may be performed by methods known to those of skill in the art. […] Apfel etal., Proc. Nat.

[3] = target: T2, RARα (Homo sapiens, UniProt P10276); assay: Binding, RARα (ligand binding assay); conditions: Table II
T2 sequence (P10276 1-462): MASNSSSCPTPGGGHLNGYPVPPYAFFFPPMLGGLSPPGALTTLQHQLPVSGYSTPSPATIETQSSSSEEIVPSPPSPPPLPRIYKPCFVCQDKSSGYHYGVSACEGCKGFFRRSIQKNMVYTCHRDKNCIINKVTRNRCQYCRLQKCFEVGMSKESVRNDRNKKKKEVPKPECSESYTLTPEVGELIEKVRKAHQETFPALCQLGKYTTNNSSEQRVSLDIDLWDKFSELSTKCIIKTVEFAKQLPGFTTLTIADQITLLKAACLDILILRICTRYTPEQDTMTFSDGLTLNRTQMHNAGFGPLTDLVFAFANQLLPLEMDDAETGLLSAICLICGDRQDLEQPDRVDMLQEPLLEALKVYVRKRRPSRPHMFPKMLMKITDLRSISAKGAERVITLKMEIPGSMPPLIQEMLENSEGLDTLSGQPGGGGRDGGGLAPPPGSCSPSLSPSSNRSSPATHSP
From the text: (§2) The RARγ agonist selectivity of a compound can be determined by routine ligand binding assays known to one of skill in the art such as described in C. Apfel et al., Proc. Nat.

[4] = target: T3, RARγ (Homo sapiens, UniProt P13631); assay: Transactivation, RARγ; type: cell-based
T3 sequence (P13631 1-454): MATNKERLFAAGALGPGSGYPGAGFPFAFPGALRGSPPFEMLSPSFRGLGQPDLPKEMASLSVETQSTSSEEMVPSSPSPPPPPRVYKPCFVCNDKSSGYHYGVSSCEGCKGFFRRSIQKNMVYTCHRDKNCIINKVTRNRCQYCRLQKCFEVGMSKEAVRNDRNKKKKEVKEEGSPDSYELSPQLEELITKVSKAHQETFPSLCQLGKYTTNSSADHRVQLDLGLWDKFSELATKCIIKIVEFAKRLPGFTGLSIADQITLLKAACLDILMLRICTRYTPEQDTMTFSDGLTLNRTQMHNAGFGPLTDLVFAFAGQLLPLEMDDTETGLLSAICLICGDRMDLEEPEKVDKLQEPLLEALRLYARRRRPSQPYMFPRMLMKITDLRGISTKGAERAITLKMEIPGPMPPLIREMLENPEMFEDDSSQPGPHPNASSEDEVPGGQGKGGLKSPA
From the text: as §1

[5] = target: T3, RARγ; assay: Binding, RARγ (ligand binding assay)
From the text: as §2

[Triglyceride] ([1]; normal rat 75-175 mg/dl): 92 mg/dL
pEC50 [2]: 7.06
pIC50 [3]: 5.57
pEC50 ([4]; Table II): 7.82
pEC50 ([4]; Table III): 7.82
pIC50 ([5]; Table II): 6.68
pIC50 ([5]; Table III): 6.68
SMILES: CCCCCCc1cc2c(cc1/C=C/c1ccc(C(=O)O)cc1)C(C)(C)CCC2(C)C [RAR Agonist 3]
triglyceride levels (in words) [1]: do not cause elevation in the triglyceride levels
